From the supplement of paper PMC10627819

Columns and labels:
[1] = test system: S. pneumoniae D39V; assay: fitness (endpoint OD595 vs no drug) (fraction); higher = more growth
In short: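 At 37 °C, bacteria in TSB, LB Lennox or CY were grown in 384-well plates from a starting OD595 of 0.01. OD595 was measured every 30 min for 14 h, with the first reading used as background. Fitness is the optical density at the switch to stationary phase as a fraction of the robust mean of no-drug control wells, capped at 1.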

[2] = test system: B. subtilis 168; assay: Bliss interaction score (quartile over a dose matrix) (fitness difference); higher = more antagonism (negative = synergy)
In short: (§1)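 OD595 was read at entry into stationary phase and expressed relative to the robust mean of the no-drug wells on the same plate, capped at 1. The resulting ratio is the fitness value. The Bliss score, observed fitness minus product-based expected fitness with single-drug fitness inferred from combinations, is summarised by quartiles over technical, biological and donor/recipient replicates.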

[3] = test system: S. aureus DSM 20231; assay: as above
In short: as §1

[4] = test system: S. aureus Newman; assay: as above
In short: as §1

[5] = test system: S. pneumoniae D39V; assay: as above
In short: as §1
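For Bliss interaction score (quartile over a dose matrix) in this document: first quartile when negative (synergy) and third quartile when positive (antagonism).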

O=C(O)c1cn(C2CC2)c2cc(N3CCNCC3)c(F)cc2c1=O [Ciprofloxacin] + CO[C@H]1/C=C/O[C@@]2(C)Oc3c(C)c(O)c4c(O)c(c(/C=N/N5CCN(C)CC5)c(O)c4c3C2=O)NC(=O)/C(C)=C\C=C\[C@H](C)[C@H](O)[C@@H](C)[C@@H](O)[C@@H](C)[C@H](OC(C)=O)[C@@H]1C [Rifampicin]
fitness, [1]
Settings	first compound 0.125 µg/mL	first compound 0.25 µg/mL	first compound 0.5 µg/mL
partner 0.025 µg/mL	0.954	0.84	0.795
partner 0.05 µg/mL	–	–	0.688

[1], partner 0.2 µg/mL, one replicate
Settings	fitness
first compound 0.125 µg/mL	0
first compound 0.25 µg/mL	0
first compound 0.5 µg/mL	0

Settings	Bliss interaction score
[2]	0.162
[3]	-0.0712
[4]	0.0614
[5]	0.0532

C[C@H]1c2cccc(O)c2C(=O)C2=C(O)[C@]3(O)C(=O)C(C(N)=O)=C(O)[C@@H](N(C)C)[C@@H]3[C@@H](O)[C@@H]21 [Doxycycline] + C/C(=C\C(=O)OCCCCCCCCC(=O)O)C[C@@H]1OC[C@H](C[C@@H]2O[C@H]2[C@@H](C)[C@H](C)O)[C@@H](O)[C@H]1O [Pseudomonic acid]
fitness, [1], one replicate
Settings	partner 0.03 µg/mL	partner 0.06 µg/mL	partner 0.12 µg/mL
first compound 0.003875 µg/mL	0.973	0.887	0.585
first compound 0.00775 µg/mL	0.943	0.839	0.614

fitness, [1]
Settings	first compound 0.0155 µg/mL	first compound 0.031 µg/mL	first compound 0.062 µg/mL
partner 0.03 µg/mL	0.993	0.937	0.821
partner 0.06 µg/mL	0.878	0.845	0.857
partner 0.12 µg/mL	0.604	0.608	0.562

Settings	Bliss interaction score
[2]	-0.0363
[3]	-0.0104
[4]	-0.0168
[5]	0.0875

C[C@H]1c2cccc(O)c2C(=O)C2=C(O)[C@]3(O)C(=O)C(C(N)=O)=C(O)[C@@H](N(C)C)[C@@H]3[C@@H](O)[C@@H]21 [Doxycycline] + O=C1CN(/N=C/c2ccc([N+](=O)[O-])o2)C(=O)N1 [Nitrofurantoin]
fitness, [1], one replicate
Settings	first compound 0.003875 µg/mL	first compound 0.00775 µg/mL	first compound 0.0155 µg/mL	first compound 0.031 µg/mL	first compound 0.062 µg/mL
partner 2 µg/mL	≥ 1	0.943	–	0.77	0.68
partner 4 µg/mL	0.993	0.953	–	0.809	0.681
partner 5.14 µg/mL	–	–	0.875	0.894	0.828
partner 8 µg/mL	0.766	0.824	–	0.8	0.741

fitness, [1]
Settings	partner 1.285 µg/mL	partner 2 µg/mL	partner 2.57 µg/mL	partner 4 µg/mL	partner 8 µg/mL
first compound 0.0155 µg/mL	0.899	0.9	0.944	0.898	0.877
first compound 0.031 µg/mL	0.896	–	0.92	–	–
first compound 0.062 µg/mL	0.837	–	0.869	–	–

Settings	Bliss interaction score
[2]	0.0854
[3]	-0.0256
[4]	-0.0329
[5]	0.0703

C[C@H]1c2cccc(O)c2C(=O)C2=C(O)[C@]3(O)C(=O)C(C(N)=O)=C(O)[C@@H](N(C)C)[C@@H]3[C@@H](O)[C@@H]21 [Doxycycline] + C[C@@H](O)[C@H]1C(=O)N2C(C(=O)O)=C(SCCNC=N)C[C@H]12 [Imipenem]
fitness, [1], one replicate
Settings	first compound 0.003875 µg/mL	first compound 0.00775 µg/mL	first compound 0.031 µg/mL	first compound 0.062 µg/mL
partner 0.005 µg/mL	≥ 1	0.998	0.87	0.739
partner 0.01 µg/mL	≥ 1	0.973	0.808	0.74
partner 0.02 µg/mL	≥ 1	0.993	0.834	0.706

fitness, [1]
Settings	partner 0.005 µg/mL	partner 0.0065 µg/mL	partner 0.01 µg/mL	partner 0.013 µg/mL	partner 0.02 µg/mL	partner 0.026 µg/mL
first compound 0.0155 µg/mL	0.989	0.886	0.931	0.845	0.928	0.746
first compound 0.031 µg/mL	–	0.825	–	0.826	–	0.789
first compound 0.062 µg/mL	–	0.753	–	0.78	–	0.759

Settings	Bliss interaction score
[2]	0.222
[3]	-0.0172
[4]	0.0141
[5]	-0.0283

COc1cccc2c1C(=O)c1c(O)c3c(c(O)c1C2=O)C[C@@](O)(C(=O)CO)C[C@@H]3O[C@H]1C[C@H](N)[C@H](O)[C@H](C)O1 [Doxorubicin] + C[C@@H](O)[C@H]1C(=O)N2C(C(=O)O)=C(SCCNC=N)C[C@H]12 [Imipenem]
fitness, [1]
Settings	partner 0.005 µg/mL	partner 0.0065 µg/mL	partner 0.01 µg/mL	partner 0.013 µg/mL	partner 0.02 µg/mL	partner 0.026 µg/mL
first compound 0.25 µg/mL	0.954	0.913	0.958	0.836	0.949	0.831
first compound 0.5 µg/mL	0.981	0.858	0.958	0.844	0.971	0.842
first compound 1 µg/mL	0.909	0.858	0.877	0.894	0.872	0.789

Settings	Bliss interaction score
[2]	-0.197
[3]	-0.0485
[4]	-0.0256
[5]	0.0651

CO/N=C(\C(=O)N[C@@H]1C(=O)N2C(C(=O)O)=C(COC(C)=O)CS[C@H]12)c1csc(N)n1 [Cefotaxime] + O=C1CN(/N=C/c2ccc([N+](=O)[O-])o2)C(=O)N1 [Nitrofurantoin]
fitness, [1]
Settings	partner 1.285 µg/mL	partner 2 µg/mL	partner 2.57 µg/mL	partner 4 µg/mL	partner 8 µg/mL
first compound 0.0018 µg/mL	0.974	0.94	0.959	0.944	0.873
first compound 0.0035 µg/mL	0.963	0.92	0.965	0.916	0.822
first compound 0.007 µg/mL	0.923	0.844	0.923	0.821	0.733

[1], partner 5.14 µg/mL, one replicate
Settings	fitness
first compound 0.0018 µg/mL	0.981
first compound 0.0035 µg/mL	0.945
first compound 0.007 µg/mL	0.894

Settings	Bliss interaction score
[2]	-0.157
[3]	0.0224
[4]	0.0592
[5]	0.142
